# Reference: patent publication US20260097111A1, “ETHER LIPIDS FOR HYPERACTIVATION OF MAMMALIAN DENDRITIC CELLS” (priority 2022, published 2026)
# Key:
# human moDCs [1] = assay: Cell viability of human moDCs (CellTiter-Glo); format: cell-based; settings: human moDCs, R848 + lipid with MCC950; FIG. 3A
# Method: After an overnight incubation, cells and culture supernatant were used for downstream readouts. One hundred and fifty microliters of cell supernatant were collected. Viability was measured using the CellTiter-Glo assay (Promega) which measures ATP content from cells. Fifty microliters of CellTiter-Glo reagent were added to 50 μL of cells. Luminescence was quantified on a SpectraMax m5e plate reader using an integration time of 500 milliseconds. Viability data were set relative to control conditions where cells were treated with only R848. To measure IL-1β secretion, the human IL-1β Lumit kit (Promega) was used to assay cell culture supernatant. Culture supernatant samples were incubated with enzyme-linked antibodies in a 384-well plate for 1 hour before addition of luminescent substrate. Samples were measured for luminescence with an integration time of 500 milliseconds. IL-1β concentrations of samples was determined by interpolation from a standard curve using 4-parameter logistic regression analysis. Studies were performed on three different human donor samples, and each biological condition was tested in triplicate. Graphed data represent means from each donor.
# Measurement of Cytokine Secretion and Cell Viability. After an overnight incubation, cells and culture supernatant were used for downstream readouts. One hundred and fifty microliters of cell culture supernatant were collected. Viability was measured using the CellTiter-Glo assay (Promega) which measures ATP content from cells. Fifty microliters of CellTiter-Glo reagent were added to 50 μL of cells. Luminescence was quantified on a SpectraMax m5e plate reader using an integration time of 500 milliseconds. Viability data were set relative to control conditions where cells were treated with only R848. To measure IL-1β secretion, the human IL-1β Lumit kit (Promega) was used. […] Samples were measured for luminescence with an integration time of 500 milliseconds. IL-1β concentrations of samples was determined by interpolation from a standard curve using 4-parameter logistic regression analysis. […]
# human moDCs [2] = assay: In vitro transwell migration assay towards CCL19; format: cell-based; settings: donor HD87, 10 ng/mL CCL19; FIG. 34A
# Method: In Vitro Transwell Migration Assay. To test the capacity of human dendritic cells to migrate, an in vitro migration assay was set up. After differentiation into moDC using GM-CSF and IL-4, cells were plated on 10 cm petri dishes at 4×10^6 cells/plate in R10++. Cells were treated with various combinations of 2.85 μM R848, 82.5 μM DGP, and 10 μM MCC950 (final concentrations). Additionally, 50 ng/mL GM-CSF and 25 ng/mL IL-4 was added to the plates. Cell cultures were incubated in a total of 8 mL/plate in a 37° C. incubator on an orbital shaker set at 100 rpm overnight.
# Cells were collected from plates and any remaining cells on plates were washed off the plates using PBS. After pelleting cells at 400×g for 5 min, cells were resuspended in R10++ and counted. Cell concentrations were adjusted to 5×10^5 cells/mL and plated in triplicate in the apical chambers of transwells at 1.5×10^5 cells/well. R10++ media containing 0; 20; or 200 ng/mL CCL19 were prepared and added to the basal chambers at 300 μL/well. For each cell treatment condition, control wells without transwell inserts were plated with an equivalent volume of cells and R10++ media. […]
# To enumerate migrated DCs, an absolute count was obtained based on the total events acquired of counting beads and live, CD11c+CD209+ single cells. […] Finally, migration was calculated relative to cells treated with only R848 with no CCL19 added.
compound,measurement,setting,value
"CC(C)(O)c1coc(S(=O)(=O)NC(=O)Nc2c3c(cc4c2CCC4)CCC3)c1 [MCC950, reference compound]",cell viability,human moDCs [1],did not affect cell viability
same,migration to the basal chamber,human moDCs [2],did not inhibit the hypermigration observed with R848+DGP
